According to patent US20210154472A1, “ELECTRICALLY RESPONSIVE, NANOPATTERNED SURFACE FOR TRIGGERED INTRACELLULAR DELIVERY OF BIOLOGICALLY ACTIVE MOLECULES” (Yissum Research Development Company of the Hebrew …, priority 2019, published 2021):

Test system: NIH3T3 fibroblast cells
Experiment: Dox internalization in cells incubated in Dox solution (FIG. 7)
Type: cell-based, mice
Details: cells incubated 24 and 36 h in 17 μM Dox solution
Method: FIGS. 7A-D provide (A,B) Overlaid optical microscopy and fluorescence images (λex=481 nm) showing extent of Dox internalization in NIH3T3 fibroblast cells after 24 and 36 h incubation in 17 μM Dox solution (for comparison, the Dox concentration that was released from 1-cm^2 nano-patterned PEM to 1-mL solution was ˜14 μM as shown in FIG. 4F). Cells were cultured for 2 days prior to incubation.

COc1cccc2c1C(=O)c1c(O)c3c(c(O)c1C2=O)C[C@@](O)(C(=O)CO)C[C@@H]3O[C@H]1C[C@H](N)[C@H](O)[C@H](C)O1 [Dox, doxorubicin]
time for the drug to penetrate the cell membrane, versus release from PEM: much longer time was needed
